Experimental data from PubChem BioAssay (NCI).
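These data come from cells grown in 96-well plates and exposed to compound for 48 hours at five concentrations. TGI: concentration producing complete growth inhibition.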

tested on: SF-539 CNS; assay: NCI anticancer screen, dose series, 48 h

SMILES | TGI
N/N=C(\CCN1CCCC1)CC(c1ccccc1)c1c(O)c2ccccc2oc1=O (configuration not stated) | > 100 µM

tested on: SK-MEL-2 melanoma; assay: NCI anticancer screen, dose series, 48 h

SMILES | TGI
Cc1ccc(Oc2ccc(C(=O)c3cccc(C(=O)c4ccc(Oc5ccc(C)cc5)cc4)n3)cc2)cc1 | > 100 µM
CC(=O)NC(CCCN(Cc1ccccc1)C(=O)NCCCl)C(=O)NCc1ccccc1 (configuration not stated) | > 100 µM
N/N=C(\CCN1CCCC1)CC(c1ccccc1)c1c(O)c2ccccc2oc1=O (configuration not stated) | > 100 µM

tested on: SK-MEL-28 melanoma; assay: NCI anticancer screen, dose series, 48 h

SMILES | TGI
COc1cc2c(cc1O)[C@@]1(Cc3ccc(OC)c(OC)c3)CCC(=O)N1CC2 | > 100 µM
Cc1ccc(Oc2ccc(C(=O)c3cccc(C(=O)c4ccc(Oc5ccc(C)cc5)cc4)n3)cc2)cc1 | > 100 µM
COc1ccc(/C=C/C(=O)c2cc(C(=O)O)c(OC)cc2OC)cc1OC | > 100 µM
CC(=O)NC(CCCN(Cc1ccccc1)C(=O)NCCCl)C(=O)NCc1ccccc1 (configuration not stated) | > 100 µM
N/N=C(\CCN1CCCC1)CC(c1ccccc1)c1c(O)c2ccccc2oc1=O (configuration not stated) | > 100 µM

tested on: SK-MEL-5 melanoma; assay: NCI anticancer screen, dose series, 48 h

SMILES | TGI
COc1cc2c(cc1O)[C@@]1(Cc3ccc(OC)c(OC)c3)CCC(=O)N1CC2 | > 100 µM
Cc1ccc(Oc2ccc(C(=O)c3cccc(C(=O)c4ccc(Oc5ccc(C)cc5)cc4)n3)cc2)cc1 | > 100 µM
COc1ccc(/C=C/C(=O)c2cc(C(=O)O)c(OC)cc2OC)cc1OC | > 100 µM
CC(=O)NC(CCCN(Cc1ccccc1)C(=O)NCCCl)C(=O)NCc1ccccc1 (configuration not stated) | > 100 µM
N/N=C(\CCN1CCCC1)CC(c1ccccc1)c1c(O)c2ccccc2oc1=O (configuration not stated) | > 100 µM

tested on: SK-OV-3 ovarian; assay: NCI anticancer screen, dose series, 48 h

SMILES | TGI
Cc1ccc(Oc2ccc(C(=O)c3cccc(C(=O)c4ccc(Oc5ccc(C)cc5)cc4)n3)cc2)cc1 | > 100 µM
CC(=O)NC(CCCN(Cc1ccccc1)C(=O)NCCCl)C(=O)NCc1ccccc1 (configuration not stated) | > 100 µM
N/N=C(\CCN1CCCC1)CC(c1ccccc1)c1c(O)c2ccccc2oc1=O (configuration not stated) | > 100 µM

tested on: SN12C renal; assay: NCI anticancer screen, dose series, 48 h

SMILES | TGI
COc1cc2c(cc1O)[C@@]1(Cc3ccc(OC)c(OC)c3)CCC(=O)N1CC2 | > 100 µM
Cc1ccc(Oc2ccc(C(=O)c3cccc(C(=O)c4ccc(Oc5ccc(C)cc5)cc4)n3)cc2)cc1 | > 100 µM
COc1ccc(/C=C/C(=O)c2cc(C(=O)O)c(OC)cc2OC)cc1OC | > 100 µM
CC(=O)NC(CCCN(Cc1ccccc1)C(=O)NCCCl)C(=O)NCc1ccccc1 (configuration not stated) | > 100 µM
N/N=C(\CCN1CCCC1)CC(c1ccccc1)c1c(O)c2ccccc2oc1=O (configuration not stated) | > 100 µM

tested on: SNB-19 CNS; assay: NCI anticancer screen, dose series, 48 h

SMILES | TGI
COc1cc2c(cc1O)[C@@]1(Cc3ccc(OC)c(OC)c3)CCC(=O)N1CC2 | > 100 µM
Cc1ccc(Oc2ccc(C(=O)c3cccc(C(=O)c4ccc(Oc5ccc(C)cc5)cc4)n3)cc2)cc1 | > 100 µM
COc1ccc(/C=C/C(=O)c2cc(C(=O)O)c(OC)cc2OC)cc1OC | > 100 µM
CC(=O)NC(CCCN(Cc1ccccc1)C(=O)NCCCl)C(=O)NCc1ccccc1 (configuration not stated) | > 100 µM
N/N=C(\CCN1CCCC1)CC(c1ccccc1)c1c(O)c2ccccc2oc1=O (configuration not stated) | > 100 µM

tested on: SNB-75 CNS; assay: NCI anticancer screen, dose series, 48 h

SMILES | TGI
COc1cc2c(cc1O)[C@@]1(Cc3ccc(OC)c(OC)c3)CCC(=O)N1CC2 | > 100 µM
Cc1ccc(Oc2ccc(C(=O)c3cccc(C(=O)c4ccc(Oc5ccc(C)cc5)cc4)n3)cc2)cc1 | > 100 µM
COc1ccc(/C=C/C(=O)c2cc(C(=O)O)c(OC)cc2OC)cc1OC | > 100 µM
CC(=O)NC(CCCN(Cc1ccccc1)C(=O)NCCCl)C(=O)NCc1ccccc1 (configuration not stated) | > 100 µM
N/N=C(\CCN1CCCC1)CC(c1ccccc1)c1c(O)c2ccccc2oc1=O (configuration not stated) | > 100 µM

tested on: SNB-78 CNS; assay: NCI anticancer screen, dose series, 48 h

SMILES | TGI
COc1cc2c(cc1O)[C@@]1(Cc3ccc(OC)c(OC)c3)CCC(=O)N1CC2 | > 100 µM
Cc1ccc(Oc2ccc(C(=O)c3cccc(C(=O)c4ccc(Oc5ccc(C)cc5)cc4)n3)cc2)cc1 | > 100 µM
COc1ccc(/C=C/C(=O)c2cc(C(=O)O)c(OC)cc2OC)cc1OC | > 100 µM
CC(=O)NC(CCCN(Cc1ccccc1)C(=O)NCCCl)C(=O)NCc1ccccc1 (configuration not stated) | > 100 µM
N/N=C(\CCN1CCCC1)CC(c1ccccc1)c1c(O)c2ccccc2oc1=O (configuration not stated) | > 100 µM

tested on: SR leukemia; assay: NCI anticancer screen, dose series, 48 h

SMILES | TGI
COc1cc2c(cc1O)[C@@]1(Cc3ccc(OC)c(OC)c3)CCC(=O)N1CC2 | > 100 µM
Cc1ccc(Oc2ccc(C(=O)c3cccc(C(=O)c4ccc(Oc5ccc(C)cc5)cc4)n3)cc2)cc1 | > 100 µM
COc1ccc(/C=C/C(=O)c2cc(C(=O)O)c(OC)cc2OC)cc1OC | > 100 µM
CC(=O)NC(CCCN(Cc1ccccc1)C(=O)NCCCl)C(=O)NCc1ccccc1 (configuration not stated) | > 100 µM
N/N=C(\CCN1CCCC1)CC(c1ccccc1)c1c(O)c2ccccc2oc1=O (configuration not stated) | > 100 µM

tested on: SW-620 colon; assay: NCI anticancer screen, dose series, 48 h

SMILES | TGI
Cc1ccc(Oc2ccc(C(=O)c3cccc(C(=O)c4ccc(Oc5ccc(C)cc5)cc4)n3)cc2)cc1 | > 100 µM
COc1ccc(/C=C/C(=O)c2cc(C(=O)O)c(OC)cc2OC)cc1OC | > 100 µM
CC(=O)NC(CCCN(Cc1ccccc1)C(=O)NCCCl)C(=O)NCc1ccccc1 (configuration not stated) | > 100 µM
N/N=C(\CCN1CCCC1)CC(c1ccccc1)c1c(O)c2ccccc2oc1=O (configuration not stated) | > 100 µM

tested on: TK-10 renal; assay: NCI anticancer screen, dose series, 48 h

SMILES | TGI
COc1cc2c(cc1O)[C@@]1(Cc3ccc(OC)c(OC)c3)CCC(=O)N1CC2 | > 100 µM
Cc1ccc(Oc2ccc(C(=O)c3cccc(C(=O)c4ccc(Oc5ccc(C)cc5)cc4)n3)cc2)cc1 | > 100 µM
CC(=O)NC(CCCN(Cc1ccccc1)C(=O)NCCCl)C(=O)NCc1ccccc1 (configuration not stated) | > 100 µM
N/N=C(\CCN1CCCC1)CC(c1ccccc1)c1c(O)c2ccccc2oc1=O (configuration not stated) | > 100 µM

tested on: U251 CNS; assay: NCI anticancer screen, dose series, 48 h

SMILES | TGI
Cc1ccc(Oc2ccc(C(=O)c3cccc(C(=O)c4ccc(Oc5ccc(C)cc5)cc4)n3)cc2)cc1 | > 100 µM
COc1ccc(/C=C/C(=O)c2cc(C(=O)O)c(OC)cc2OC)cc1OC | > 100 µM
CC(=O)NC(CCCN(Cc1ccccc1)C(=O)NCCCl)C(=O)NCc1ccccc1 (configuration not stated) | > 100 µM
N/N=C(\CCN1CCCC1)CC(c1ccccc1)c1c(O)c2ccccc2oc1=O (configuration not stated) | > 100 µM

tested on: UACC-257 melanoma; assay: NCI anticancer screen, dose series, 48 h

SMILES | TGI
COc1cc2c(cc1O)[C@@]1(Cc3ccc(OC)c(OC)c3)CCC(=O)N1CC2 | > 100 µM
Cc1ccc(Oc2ccc(C(=O)c3cccc(C(=O)c4ccc(Oc5ccc(C)cc5)cc4)n3)cc2)cc1 | > 100 µM
COc1ccc(/C=C/C(=O)c2cc(C(=O)O)c(OC)cc2OC)cc1OC | > 100 µM
CC(=O)NC(CCCN(Cc1ccccc1)C(=O)NCCCl)C(=O)NCc1ccccc1 (configuration not stated) | > 100 µM
N/N=C(\CCN1CCCC1)CC(c1ccccc1)c1c(O)c2ccccc2oc1=O (configuration not stated) | > 100 µM

tested on: UACC-62 melanoma; assay: NCI anticancer screen, dose series, 48 h

SMILES | TGI
COc1cc2c(cc1O)[C@@]1(Cc3ccc(OC)c(OC)c3)CCC(=O)N1CC2 | > 100 µM
Cc1ccc(Oc2ccc(C(=O)c3cccc(C(=O)c4ccc(Oc5ccc(C)cc5)cc4)n3)cc2)cc1 | > 100 µM
COc1ccc(/C=C/C(=O)c2cc(C(=O)O)c(OC)cc2OC)cc1OC | > 100 µM
CC(=O)NC(CCCN(Cc1ccccc1)C(=O)NCCCl)C(=O)NCc1ccccc1 (configuration not stated) | > 100 µM
N/N=C(\CCN1CCCC1)CC(c1ccccc1)c1c(O)c2ccccc2oc1=O (configuration not stated) | > 100 µM

tested on: UO-31 renal; assay: NCI anticancer screen, dose series, 48 h

SMILES | TGI
COc1cc2c(cc1O)[C@@]1(Cc3ccc(OC)c(OC)c3)CCC(=O)N1CC2 | > 100 µM
Cc1ccc(Oc2ccc(C(=O)c3cccc(C(=O)c4ccc(Oc5ccc(C)cc5)cc4)n3)cc2)cc1 | > 100 µM
CC(=O)NC(CCCN(Cc1ccccc1)C(=O)NCCCl)C(=O)NCc1ccccc1 (configuration not stated) | > 100 µM
